PubChem BioAssay (NCI)
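Five compound concentrations were applied to cells in 96-well plates for 48 hours; endpoints were derived by simple linear interpolation of the resulting dose-response curve. At the TGI there is no net growth.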

How the values were obtained:
Assay in all cases: NCI tumour cell line growth inhibition, 48 h
786-0 renal = test system: 786-0 renal
A498 renal = test system: A498 renal
A549 NSCLC = test system: A549 NSCLC
ACHN renal = test system: ACHN renal
BT-549 breast = test system: BT-549 breast
CAKI-1 renal = test system: CAKI-1 renal
CCRF-CEM leukemia = test system: CCRF-CEM leukemia
COLO 205 colon = test system: COLO 205 colon
DLD-1 colon = test system: DLD-1 colon
DMS 114 small cell lung = test system: DMS 114 small cell lung
DMS 273 small cell lung = test system: DMS 273 small cell lung
DU-145 prostate = test system: DU-145 prostate
EKVX NSCLC = test system: EKVX NSCLC
HCC-2998 colon = test system: HCC-2998 colon
HCT-116 colon = test system: HCT-116 colon
HCT-15 colon = test system: HCT-15 colon
HL-60(TB) leukemia = test system: HL-60(TB) leukemia
HOP-18 NSCLC = test system: HOP-18 NSCLC
HOP-62 NSCLC = test system: HOP-62 NSCLC
HOP-92 NSCLC = test system: HOP-92 NSCLC
HS 578T breast = test system: HS 578T breast
HT29 colon = test system: HT29 colon
IGROV1 ovarian = test system: IGROV1 ovarian
K-562 leukemia = test system: K-562 leukemia
KM12 colon = test system: KM12 colon
KM20L2 colon = test system: KM20L2 colon
LOX IMVI melanoma = test system: LOX IMVI melanoma
LXFL 529 NSCLC = test system: LXFL 529 NSCLC
M14 melanoma = test system: M14 melanoma
M19-MEL melanoma = test system: M19-MEL melanoma
MALME-3M melanoma = test system: MALME-3M melanoma
MCF7 breast = test system: MCF7 breast
MDA-MB-231 breast = test system: MDA-MB-231 breast
MDA-MB-435 = test system: MDA-MB-435
MDA-N = test system: MDA-N
MOLT-4 leukemia = test system: MOLT-4 leukemia
NCI-H226 lung = test system: NCI-H226 lung
NCI-H23 lung = test system: NCI-H23 lung
NCI-H460 lung = test system: NCI-H460 lung
NCI-H522 lung = test system: NCI-H522 lung
NCI/ADR-RES ovarian = test system: NCI/ADR-RES ovarian
OVCAR-3 ovarian = test system: OVCAR-3 ovarian
OVCAR-4 ovarian = test system: OVCAR-4 ovarian
OVCAR-5 ovarian = test system: OVCAR-5 ovarian
OVCAR-8 ovarian = test system: OVCAR-8 ovarian
PC-3 prostate = test system: PC-3 prostate
RPMI-8226 leukemia = test system: RPMI-8226 leukemia
RXF 393 renal = test system: RXF 393 renal
SF-268 CNS = test system: SF-268 CNS
SF-295 CNS = test system: SF-295 CNS
SF-539 CNS = test system: SF-539 CNS
SK-MEL-2 melanoma = test system: SK-MEL-2 melanoma
SK-MEL-28 melanoma = test system: SK-MEL-28 melanoma
SK-MEL-5 melanoma = test system: SK-MEL-5 melanoma
SK-OV-3 ovarian = test system: SK-OV-3 ovarian
SN12C renal = test system: SN12C renal
SNB-19 CNS = test system: SNB-19 CNS
SNB-75 CNS = test system: SNB-75 CNS
SNB-78 CNS = test system: SNB-78 CNS
SW-620 colon = test system: SW-620 colon
T-47D breast = test system: T-47D breast
TK-10 renal = test system: TK-10 renal
U251 CNS = test system: U251 CNS
UACC-257 melanoma = test system: UACC-257 melanoma
UACC-62 melanoma = test system: UACC-62 melanoma
UO-31 renal = test system: UO-31 renal
XF 498 CNS = test system: XF 498 CNS

CCN(CC)Cc1c(/C=C\c2cc(OC)c(OC)c(OC)c2)ccc(OC)c1O
TGI (786-0 renal): 78.9 µM | TGI (A498 renal): 17.4 µM | TGI (A549 NSCLC): > 100 µM | TGI (ACHN renal): > 100 µM | TGI (BT-549 breast): > 82.2 µM | TGI (CAKI-1 renal): > 100 µM | TGI (CCRF-CEM leukemia): > 100 µM | TGI (COLO 205 colon): 7.36 µM | TGI (DLD-1 colon): > 100 µM | TGI (DMS 114 small cell lung): 5.68 µM | TGI (DMS 273 small cell lung): > 100 µM | TGI (DU-145 prostate): 39.7 µM | TGI (EKVX NSCLC): > 93.5 µM | TGI (HCC-2998 colon): 20.4 µM | TGI (HCT-116 colon): 42.7 µM | TGI (HCT-15 colon): 34.8 µM | TGI (HL-60(TB) leukemia): > 60.8 µM | TGI (HOP-18 NSCLC): > 100 µM | TGI (HOP-62 NSCLC): > 100 µM | TGI (HOP-92 NSCLC): > 100 µM | TGI (HS 578T breast): 6.22 µM | TGI (HT29 colon): 9.48 µM | TGI (IGROV1 ovarian): > 78.5 µM | TGI (K-562 leukemia): > 100 µM | TGI (KM12 colon): 27.1 µM | TGI (KM20L2 colon): 11.9 µM | TGI (LOX IMVI melanoma): > 100 µM | TGI (LXFL 529 NSCLC): > 100 µM | TGI (M14 melanoma): > 59.1 µM | TGI (M19-MEL melanoma): > 100 µM | TGI (MALME-3M melanoma): > 100 µM | TGI (MCF7 breast): 99.4 µM | TGI (MDA-MB-231 breast): > 100 µM | TGI (MDA-MB-435): 826 nM | TGI (MDA-N): 1590 nM | TGI (MOLT-4 leukemia): > 100 µM | TGI (NCI-H226 lung): 27.3 µM | TGI (NCI-H23 lung): 14.3 µM | TGI (NCI-H460 lung): > 100 µM | TGI (NCI-H522 lung): 6.22 µM | TGI (NCI/ADR-RES ovarian): 6.29 µM | TGI (OVCAR-3 ovarian): 6.49 µM | TGI (OVCAR-4 ovarian): > 75.5 µM | TGI (OVCAR-5 ovarian): > 100 µM | TGI (OVCAR-8 ovarian): 63.2 µM | TGI (PC-3 prostate): > 41.5 µM | TGI (RPMI-8226 leukemia): > 100 µM | TGI (RXF 393 renal): 9.35 µM | TGI (SF-268 CNS): 52.2 µM | TGI (SF-295 CNS): 32.1 µM | TGI (SF-539 CNS): 9.24 µM | TGI (SK-MEL-2 melanoma): > 37.1 µM | TGI (SK-MEL-28 melanoma): > 100 µM | TGI (SK-MEL-5 melanoma): > 83.7 µM | TGI (SK-OV-3 ovarian): 10.2 µM | TGI (SN12C renal): > 71.7 µM | TGI (SNB-19 CNS): > 100 µM | TGI (SNB-75 CNS): 9.49 µM | TGI (SNB-78 CNS): > 100 µM | TGI (SW-620 colon): > 100 µM | TGI (T-47D breast): > 100 µM | TGI (TK-10 renal): > 100 µM | TGI (U251 CNS): 17.2 µM | TGI (UACC-257 melanoma): > 100 µM | TGI (UACC-62 melanoma): 27.7 µM | TGI (UO-31 renal): > 94.1 µM | TGI (XF 498 CNS): 21.5 µM
